Measurements: patent publication US20240123073A1, “NOVEL RIPK1 KINASE TARGETING PROTACS AND METHODS OF USE THEREOF” (Baylor College of Medicine, priority 2020, published 2024)

Target: T1, RIPK1 (Homo sapiens, UniProt Q13546)
T1 construct: endogenous in cells
T1 sequence (Q13546 1-671): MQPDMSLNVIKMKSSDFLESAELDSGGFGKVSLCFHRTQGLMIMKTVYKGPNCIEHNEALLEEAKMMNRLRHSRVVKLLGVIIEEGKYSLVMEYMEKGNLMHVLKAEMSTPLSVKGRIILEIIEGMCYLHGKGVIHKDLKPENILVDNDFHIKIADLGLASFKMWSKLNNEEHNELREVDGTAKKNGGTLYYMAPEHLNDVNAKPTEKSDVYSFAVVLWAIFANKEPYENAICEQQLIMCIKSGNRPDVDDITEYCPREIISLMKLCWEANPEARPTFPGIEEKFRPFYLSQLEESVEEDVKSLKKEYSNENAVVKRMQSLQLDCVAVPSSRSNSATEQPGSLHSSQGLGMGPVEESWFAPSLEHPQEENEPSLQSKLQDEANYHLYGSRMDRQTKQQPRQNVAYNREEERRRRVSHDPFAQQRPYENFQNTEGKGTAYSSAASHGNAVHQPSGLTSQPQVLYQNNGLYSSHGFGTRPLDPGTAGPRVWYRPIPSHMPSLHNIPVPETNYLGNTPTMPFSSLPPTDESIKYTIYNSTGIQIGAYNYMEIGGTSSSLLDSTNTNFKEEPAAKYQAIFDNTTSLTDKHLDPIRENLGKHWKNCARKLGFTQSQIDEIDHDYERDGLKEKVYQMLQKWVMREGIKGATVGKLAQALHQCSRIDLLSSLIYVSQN
Assay: RIPK1 degradation Western Blot assay
Type: cell-based
Conditions: human cells, 24 h incubation at 37° C., read-out: Degradation Activity (DC50, concentration at which 50% of RIPK1 kinase has been degraded)
Protocol: Cells were seeded in 6-well cell culture plates overnight prior to treatment and incubated with the indicated doses of compounds for 24 h at 37° C. Then, cell pellets were collected and resuspended with RIPA lysis buffer, which was added with 1% […] inhibitor and phosphatase inhibitor Cocktail. Whole-cell protein lysates were sonicated on ice for 20 seconds and centrifuged at 12 000 rpm for 20 min at 4° C. The supernatants were determined using the BCA method. Proteins were separated by sodium dodecyl sulfate-polyacrylamide gel electrophoresis and transferred to polyvinylidene fluoride membranes. The membranes were incubated with blocking buffer for 1 h. Then, the membranes were incubated at 4° C. overnight with the primary antibodies. After washing, the membranes were incubated for 1 h at room temperature with the secondary antibody and washed again. Changes in protein expression was detected using an enhanced chemiluminescence detection reagent. RIPK1 antibody was purchased from Santa Cruz.
The activities of exemplary compounds as described herein, measured in terms of the degradation concentration (DC50 representing the concentration at which 50% of the target, in this case RIPK1 kinase, has been degraded), are provided in Table 11. In Table 11, a DC50 value less than 1 μM is indicated as an “A;” a DC50 value from 1 μM to 10 μM is indicated as a “B” and a DC50 value of greater than 10 μM is indicated as a “C.”

| DC50 [nM] | SMILES |
| --- | --- |
| < 1000 | Cc1ncsc1-c1ccc([C@H](C)NC(=O)[C@@H]2C[C@@H](O)CN2C(=O)[C@@H](NC(=O)CCN2CCC(C#Cc3ccc(C(=O)NCCCn4cc(-c5ccc6c(c5)CCN6C(=O)Cc5cccc(OC(F)(F)F)c5)c5c(N)ncnc54)cc3)CC2)C(C)(C)C)cc1 [Compound 36] |
| 1000 to 10000 | Cc1ncsc1-c1ccc([C@H](C)NC(=O)[C@@H]2C[C@@H](O)CN2C(=O)[C@@H](NC(=O)CCN2CC3(CC(Oc4ccc(C(=O)NCCCn5cc(-c6ccc7c(c6)CCN7C(=O)Cc6cccc(OC(F)(F)F)c6)c6c(N)ncnc65)cn4)C3)C2)C(C)(C)C)cc1 [Compound 38] |
| < 1000 | Cc1ncsc1-c1ccc([C@H](CC(=O)NCCCCCCCCC(=O)NCCCn2cc(-c3ccc4c(c3)CCN4C(=O)Cc3cccc(OC(F)(F)F)c3)c3c(N)ncnc32)NC(=O)[C@@H]2C[C@@H](O)CN2C(=O)[C@H](NC(=O)C2(F)CC2)C(C)(C)C)cc1 [Compound 40, (2S,4R)—N—((S)-3-((9-((3-(4-amino-5-(1-(2-(3-(trifluoromethoxy)phenyl)acetyl)indolin-5-yl)-7H-pyrrolo[2,3-d]pyrimidin-7-yl)propyl)amino)-9-oxononyl)amino)-1-(4-(4-methylthiazol-5-yl)phenyl)-3-oxopropyl)-1-((R)-2-(1-fluorocyclopropane-1-carboxamido)-3,3-dimethylbutanoyl)-4-hydroxypyrrolidine-2-carboxamide] |
| < 1000 | Cc1ncsc1-c1ccc([C@H](CC(=O)N2CCC(N3CCC(C#Cc4ccc(C(=O)NCCCn5cc(-c6ccc7c(c6)CCN7C(=O)Cc6cccc(OC(F)(F)F)c6)c6c(N)ncnc65)cc4)CC3)CC2)NC(=O)[C@@H]2C[C@@H](O)CN2C(=O)[C@@H](NC(=O)C2(F)CC2)C(C)(C)C)cc1 [Compound 45] |
| < 1000 | Cc1ncsc1-c1ccc([C@H](CC(=O)N2CCN(c3ccc(C#Cc4ccc(C(=O)NCCCn5cc(-c6ccc7c(c6)CCN7C(=O)Cc6cccc(OC(F)(F)F)c6)c6c(N)ncnc65)cc4)cn3)CC2)NC(=O)[C@@H]2C[C@@H](O)CN2C(=O)[C@@H](NC(=O)C2(F)CC2)C(C)(C)C)cc1 [Compound 46] |
| > 10000 | Cc1ncsc1-c1ccc([C@H](CC(=O)N2CCC(N3CCN(c4ccc(C#Cc5ccc(C(=O)NCCCn6cc(-c7ccc8c(c7)CCN8C(=O)Cc7cccc(OC(F)(F)F)c7)c7c(N)ncnc76)cc5)cn4)CC3)CC2)NC(=O)[C@@H]2C[C@@H](O)CN2C(=O)[C@@H](NC(=O)C2(F)CC2)C(C)(C)C)cc1 [Compound 47] |
| < 1000 | Nc1ncnc2c1c(-c1ccc3c(c1)CCN3C(=O)Cc1cccc(OC(F)(F)F)c1)cn2CCCNC(=O)CCCCNC(=O)CN1CCC(c2ccc(NC3CCC(=O)NC3=O)cc2)CC1 (stereo not shown) [Compound 62] |
| < 1000 | Nc1ncnc2c1c(-c1ccc3c(c1)CCN3C(=O)Cc1cccc(OC(F)(F)F)c1)cn2CCCNC(=O)c1ccc(C#CC2CCN(C3CCN(C(=O)CN4CCC(c5ccc(NC6CCC(=O)NC6=O)cc5)CC4)CC3)CC2)cc1 (stereo not shown) [Compound 66] |
| < 1000 | Nc1ncnc2c1c(-c1ccc3c(c1)CCN3C(=O)Cc1cccc(OC(F)(F)F)c1)cn2CCCNC(=O)c1ccc(C#Cc2ccc(N3CCN(C(=O)CN4CCC(c5ccc(NC6CCC(=O)NC6=O)cc5)CC4)CC3)nc2)cc1 (stereo not shown) [Compound 67] |
| < 1000 | Nc1ncnc2c1c(-c1ccc3c(c1)CCN3C(=O)Cc1cccc(OC(F)(F)F)c1)cn2CCCNC(=O)c1ccc(C#Cc2ccc(N3CC4(CN(C(=O)CN5CCC(c6ccc(NC7CCC(=O)NC7=O)cc6)CC5)C4)C3)nc2)cc1 (stereo not shown) [Compound 68] |
| 1000 to 10000 | Nc1ncnc2c1c(-c1ccc3c(c1)CCN3C(=O)Cc1cccc(OC(F)(F)F)c1)cn2CCCNC(=O)c1ccc(C#CC2CCN(C(=O)CN3CCC(c4ccc(NC5CCC(=O)NC5=O)cc4)CC3)CC2)cc1 (stereo not shown) [Compound 69] |
| > 10000 | Cc1ncsc1-c1ccc([C@H](C)NC(=O)[C@@H]2C[C@@H](O)CN2C(=O)[C@@H](NC(=O)CCCCCCCCNC(=O)c2ccc(-c3cc(N4CCC(C(=O)N5N=CCC5c5ccccc5)CC4)ncn3)cc2)C(C)(C)C)cc1 (stereo partly shown) [Compound 77] |
| < 1000 | Cn1c(=O)n(C2CCC(=O)NC2=O)c2ccc(CCC(=O)N3CCC(N4CCC(C#Cc5ccc(C(=O)NCCCn6cc(-c7ccc8c(c7)CCN8C(=O)Cc7cccc(OC(F)(F)F)c7)c7c(N)ncnc76)cc5)CC4)CC3)cc21 (stereo not shown) [Compound 78] |
| < 1000 | Cn1c(=O)n(C2CCC(=O)NC2=O)c2ccc(CCC(=O)N3CCN(c4ccc(C#Cc5ccc(C(=O)NCCCn6cc(-c7ccc8c(c7)CCN8C(=O)Cc7cccc(OC(F)(F)F)c7)c7c(N)ncnc76)cc5)cn4)CC3)cc21 (stereo not shown) [Compound 79] |
| < 1000 | Cn1c(=O)n(C2CCC(=O)NC2=O)c2ccc(CCC(=O)N3CCC(C#Cc4ccc(C(=O)NCCCn5cc(-c6ccc7c(c6)CCN7C(=O)Cc6cccc(OC(F)(F)F)c6)c6c(N)ncnc65)cc4)CC3)cc21 (stereo not shown) [Compound 80] |
| < 1000 | Cn1c(=O)n(C2CCC(=O)NC2=O)c2ccc(CCC(=O)c3ccc(C#Cc4ccc(C(=O)NCCCn5cc(-c6ccc7c(c6)CCN7C(=O)Cc6cccc(OC(F)(F)F)c6)c6c(N)ncnc65)cc4)cn3)cc21 (stereo not shown) [Compound 81] |
